Experimental data as given in article PMC6032235 (2018).

Key:
Experiment in all cases: CD
[1] = test system: B1 (DNA, aptamer) GAGAGTCAATCGACCTGGGGGAGTATTGCGGAGGAAGGTACGCATTCGCTATA; settings: 300 mM NaCl, 5 mM MgCl2; 20 mM Tris-HCl; 5 μM DNA, 1 mM ATP, room temperature; peak shift 272 to 277 nm
[2] = test system: B-linker (B1/B2 assembly) (DNA, aptamer) GAGAGTCAATCGACCTGGGGGAGTATTGCGGAGGAAGGTACGCATTCGCTATA/GAGAGTCAATCGTATAGCGAATGCGT; settings: 300 mM NaCl, 5 mM MgCl2; 20 mM Tris-HCl; 5 μM DNA, 1 mM ATP; peak shift 273 to 279 nm; CD alone not conclusive
[3] = test system: L1 (random DNA sequence) (DNA, single strand) GAGAGTCAATCGTCTATTCGCATGAGAATTCCATTCACCGTAAG; settings: 300 mM NaCl, 5 mM MgCl2; 20 mM Tris-HCl; 5 μM DNA, 1 mM ATP; nonspecific peak shift 277 to 280 nm

- binding [1]: yes
- binding [2]: yes
- binding [3]: no
Structure (SMILES): Nc1ncnc2c1ncn2[C@@H]1O[C@H](COP(=O)(O)OP(=O)(O)OP(=O)(O)O)[C@@H](O)[C@H]1O
